This note sets out measurements from ChEMBL document CHEMBL3045705, “Thermal, kinetic, spectroscopic studies and anti-microbial, anti-tuberculosis, anti-oxidant properties of clioquinol and benzo-coumarin derivatives mixed complexes with copper ion” (2013).

Converted amounts (≈) assume the structure as drawn. Bounds are passed on as bounds.

Holding throughout (assay type): functional
One test has as its system Escherichia coli. Kind of test: Antibacterial activity against Escherichia coli ATCC 25922 after 16 to 18 hr by Kirby-Bauer disc diffusion method.
Another test deals with Bacillus subtilis. The experiment in a line: Antibacterial activity against Bacillus subtilis ATCC 11774 after 16 to 18 hr by Kirby-Bauer disk diffusion method.
The next test concerns Pseudomonas aeruginosa. The experiment in a line: Antibacterial activity against Pseudomonas aeruginosa ATCC 25619 after 16 to 18 hr by Kirby-Bauer disc diffusion method.
A further test deals with Streptococcus pyogenes. Kind of test: Antibacterial activity against Streptococcus pyogenes ATCC 12384 after 16 to 18 hr by Kirby-Bauer disc diffusion method.
Test [1] relates to Mycobacterium tuberculosis. The experiment in a line: Antitubercular activity against Mycobacterium tuberculosis H37Rv MTCC 200 after 28 days by micro dilution anti-microbial susceptibility test. The settings on record: H37Rv MTCC 200, 672 h.
For test [2], the system named is Mycobacterium tuberculosis. Kind of test: Growth inhibition of Mycobacterium tuberculosis H37Rv MTCC 200 at MIC after 28 days by micro dilution anti-microbial susceptibility test.
A further test has as its system Candida albicans. The experiment in a line: Antifungal activity against Candida albicans ATCC 66027 after 16 to 18 hr by Kirby-Bauer disk diffusion method.
A further test concerns Aspergillus niger. Kind of test: Antifungal activity against Aspergillus niger ATCC 64958 after 16 to 18 hr by Kirby-Bauer disc diffusion method.

For `CCn1cc(C(=O)O)c(=O)c2cc(F)c(N3CCNCC3)cc21` [NORFLOXACIN], the MIC in the test with Escherichia coli, in the test with Bacillus subtilis, in the test on Pseudomonas aeruginosa and in the test with Streptococcus pyogenes was 10 mg/L (≈ 31.3 µM) each time.

On to `O=C(/C=C/c1ccccc1[N+](=O)[O-])c1cc2c(ccc3ccccc32)oc1=O`, for which the MIC in the test with Escherichia coli was 200 mg/L (≈ 539 µM); with Bacillus subtilis, 400 mg/L (≈ 1080 µM); in test [1] it was 50 mg/L (≈ 135 µM); against Pseudomonas aeruginosa, 400 mg/L (≈ 1080 µM); in the test on Streptococcus pyogenes, 200 mg/L (≈ 539 µM); with Candida albicans, 400 mg/L (≈ 1080 µM). For the same compound, the lowest concentration to inhibit growth in the test on Aspergillus niger (MIC) was 200 mg/L (≈ 539 µM). Further, the “growth inhibition (GI)” value in test [2] was determined as 37%.

With `CC1(C)S[C@@H]2[C@H](NC(=O)[C@H](N)c3ccccc3)C(=O)N2[C@H]1C(=O)O` [AMPICILLIN], the MIC in the test on Escherichia coli, against Bacillus subtilis, with Pseudomonas aeruginosa and against Streptococcus pyogenes was 100 mg/L (≈ 286 µM) in each case.

Turning to `O=C(/C=C/c1ccc(O)cc1)c1cc2c(ccc3ccccc32)oc1=O`, the MIC in the test on Escherichia coli was found to be 200 mg/L (≈ 584 µM); against Bacillus subtilis it was 400 mg/L (≈ 1170 µM); in test [1], 50 mg/L (≈ 146 µM); against Pseudomonas aeruginosa, 200 mg/L (≈ 584 µM); in the test on Streptococcus pyogenes, 400 mg/L (≈ 1170 µM); with Candida albicans, 200 mg/L (≈ 584 µM). The same compound displayed an MIC with Aspergillus niger of 400 mg/L (≈ 1170 µM). For the same compound, the “growth inhibition (GI)” value in test [2] is given as 46%.

Consider `O=C(/C=C/c1ccc(Cl)cc1)c1cc2c(ccc3ccccc32)oc1=O`, for which the MIC came to 100 mg/L (≈ 277 µM) against Escherichia coli; 200 mg/L (≈ 554 µM) with Bacillus subtilis; 12.5 mg/L (≈ 34.6 µM) in test [1]; 100 mg/L (≈ 277 µM) in the test on Pseudomonas aeruginosa; 100 mg/L (≈ 277 µM) against Streptococcus pyogenes; 200 mg/L (≈ 554 µM) in the test on Candida albicans. For the same compound, the MIC in the test with Aspergillus niger was 200 mg/L (≈ 554 µM). Moreover, the “growth inhibition (GI)” value in test [2] was 88%.

`O=C(/C=C/c1cccc(O)c1)c1cc2c(ccc3ccccc32)oc1=O`: the minimum inhibitory concentration (MIC) came out at 400 mg/L (≈ 1170 µM) against Escherichia coli; 600 mg/L (≈ 1750 µM) in the test with Bacillus subtilis; 100 mg/L (≈ 292 µM) in test [1]; 200 mg/L (≈ 584 µM) in the test with Pseudomonas aeruginosa; 200 mg/L (≈ 584 µM) against Streptococcus pyogenes; 200 mg/L (≈ 584 µM) with Candida albicans. Also, it took 200 mg/L (≈ 584 µM) to inhibit growth in the test on Aspergillus niger (MIC). Moreover, in test [2], the “growth inhibition (GI)” value was 23%.

With `OC(Cn1cncn1)(Cn1cncn1)c1ccc(F)cc1F` [FLUCONAZOLE], the MIC against Candida albicans and against Aspergillus niger was 10 mg/L (≈ 32.7 µM) throughout.

For NYSTATIN, the MIC in the test with Candida albicans and with Aspergillus niger was 100 mg/L throughout.

Regarding `O=C(/C=C/c1ccccc1)c1cc2c(ccc3ccccc32)oc1=O`, the MIC is 400 mg/L (≈ 1230 µM) in the test on Escherichia coli; greater than 600 mg/L in the test with Bacillus subtilis; 100 mg/L (≈ 306 µM) in test [1]; 400 mg/L (≈ 1230 µM) with Pseudomonas aeruginosa; 400 mg/L (≈ 1230 µM) against Streptococcus pyogenes; 400 mg/L (≈ 1230 µM) in the test on Candida albicans. The MIC with Aspergillus niger was 200 mg/L (≈ 613 µM). Also, the “growth inhibition (GI)” value in test [2] came to 18%.

In turn, `NNC(=O)c1ccncc1` [ISONIAZID] registered an MIC in test [1] of 0.25 mg/L (≈ 1.82 µM). The “growth inhibition (GI)” value in test [2] stood at 99%.

Regarding `CC[C@@H](CO)NCCN[C@@H](CC)CO` [ETHAMBUTOL], the lowest concentration to inhibit growth in test [1] (MIC) was 3.12 mg/L (≈ 15.3 µM). Also, the “growth inhibition (GI)” value in test [2] amounted to 99%.

With `O=C(/C=C/c1ccc([N+](=O)[O-])cc1)c1cc2c(ccc3ccccc32)oc1=O`, the MIC against Escherichia coli was determined as 100 mg/L (≈ 269 µM); in the test on Bacillus subtilis it was 200 mg/L (≈ 539 µM); in test [1] it was 50 mg/L (≈ 135 µM); in the test on Pseudomonas aeruginosa it was 200 mg/L (≈ 539 µM); with Streptococcus pyogenes, 100 mg/L (≈ 269 µM); with Candida albicans, 200 mg/L (≈ 539 µM). Also, in the test with Aspergillus niger, the MIC is 200 mg/L (≈ 539 µM). Besides, in test [2], the “growth inhibition (GI)” value is recorded as 54%.

Consider `O=C(O)c1cn(C2CC2)c2cc(N3CCNCC3)c(F)cc2c1=O` [CIPROFLOXACIN], for which the MIC with Escherichia coli came to 20 mg/L (≈ 60.4 µM); in the test with Bacillus subtilis it was 5 mg/L (≈ 15.1 µM); against Pseudomonas aeruginosa, 10 mg/L (≈ 30.2 µM); with Streptococcus pyogenes, 20 mg/L (≈ 60.4 µM).

Compound `CN[C@@H]1[C@H](O[C@H]2[C@H](O[C@H]3[C@H](O)[C@@H](O)[C@H](N=C(N)N)[C@@H](O)[C@@H]3N=C(N)N)O[C@@H](C)[C@]2(O)C=O)O[C@@H](CO)[C@H](O)[C@H]1O` [STREPTOMYCIN] displayed an MIC in test [1] of 6.25 mg/L (≈ 10.7 µM). In test [2], the “growth inhibition (GI)” value was 98%.
